Measured values: patent publication US10316028B2, “Orexin receptor antagonists” (Heptares Therapeutics Limited, priority 2012, dated 2019)

These compounds were tested against T1, human Orexin-2 receptor (Homo sapiens, UniProt O43614) (assay: 3H-EMPA radioligand binding assay). Settings: 3H-EMPA displacement, membranes of HEK293 cells transfected with human Orexin-2 receptor; KI by Cheng-Prussoff; read-out: OX2 pKi ave (converted).
T1 construct: expressed in transfected cells; host or cells: HEK293 cells (transient transfection, Genejuice); membranes
T1 sequence (O43614 1-444): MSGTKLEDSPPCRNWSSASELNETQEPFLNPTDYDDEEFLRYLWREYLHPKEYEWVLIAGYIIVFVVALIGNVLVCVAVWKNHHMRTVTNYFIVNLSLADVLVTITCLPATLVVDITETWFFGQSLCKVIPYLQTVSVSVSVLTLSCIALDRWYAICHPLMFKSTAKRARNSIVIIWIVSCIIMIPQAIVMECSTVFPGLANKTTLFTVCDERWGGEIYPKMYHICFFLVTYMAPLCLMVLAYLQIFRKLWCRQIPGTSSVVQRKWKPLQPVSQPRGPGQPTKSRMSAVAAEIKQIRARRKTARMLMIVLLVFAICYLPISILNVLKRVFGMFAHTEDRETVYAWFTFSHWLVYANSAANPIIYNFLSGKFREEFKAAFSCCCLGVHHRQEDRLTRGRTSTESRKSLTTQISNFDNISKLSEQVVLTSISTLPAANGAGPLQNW
Experimental: cDNA encoding the human Orexin-2 receptor was transfected into HEK293 cells using the transfection reagent Genejuice (Novagen). Forty-eight hours after transfection, cells were harvested and washed twice with ice cold phosphate-buffered saline. The pellet was resuspended in ice-cold buffer containing 20 mM Tris-HCl, pH 7.4, 1 mM EDTA and homogenised with an Ultraturax for 30 s at maximum speed. After centrifugation at 48,000 g for 30 min at 4° C., the pellet was resuspended and spun again. The final pellet was resuspended and frozen at −80° C. before use. Protein concentration was determined using the BCA protein assay method.
^3H-EMPA Radioligand Binding Assay
At the end of the incubation, membranes were filtered onto a unifilter, a 96-well white microplate with bonded GF/B filter pre-incubated with 0.5% polyethylenimine, with a Tomtec cell harvester and washed 4 times with distilled water. […] Radioactivity on the filter was counted (1 min) on a microbeta counter after addition of 50 µL of scintillation fluid. […] IC50 values were derived from the inhibition curve and the equilibrium dissociation constant (KI) values were calculated using the Cheng-Prussoff equation.

How did the Ki turn out when `COc1cccc(CCN2C(=O)N(Cc3c(F)cccc3F)c3ccccc3S2(=O)=O)c1` [Example 66, 4-(2,6-Difluorobenzyl)-2-[2-(3-methoxyphenyl)ethyl]-2H-1,2,4-benzothiadiazin-3(4H)-one 1,1-dioxide] was run?
The Ki was 550 nM.

With `COc1ccc(N2C(=O)N(Cc3ccccc3F)c3ccccc3S2(=O)=O)cc1OC` [Example 67, 2-(3,4-Dimethoxyphenyl)-4-(2-fluorobenzyl)-2H-1,2,4-benzothiadiazin-3(4H)-one 1,1-dioxide] as the compound, how does the Ki read?
The Ki was 7.08 nM.

With `COc1ccc(N2C(=O)N(Cc3c(Cl)cccc3Cl)c3ccccc3S2(=O)=O)cc1OC` [Example 68, 4-(2,6-Dichlorobenzyl)-2-(3,4-dimethoxyphenyl)-2H-1,2,4-benzothiadiazin-3(4H)-one 1,1-dioxide] as the compound, how does the Ki read?
The Ki was 0.708 nM.

With `COc1cc(OC)cc(N2C(=O)N(Cc3c(F)cccc3Cl)c3ccccc3S2(=O)=O)c1` [Example 69, 4-(2-Chloro-6-fluorobenzyl)-2-(3,5-dimethoxyphenyl)-2H-1,2,4-benzothiadiazin-3(4H)-one 1,1-dioxide] as the compound, how does the Ki read?
Its Ki is 1.07 nM.

With `COc1cc(OC)cc(N2C(=O)N(Cc3c(Cl)cccc3Cl)c3ccccc3S2(=O)=O)c1` [Example 70, 4-(2,6-Dichlorobenzyl)-2-(3,5-dimethoxyphenyl)-2H-1,2,4-benzothiadiazin-3(4H)-one 1,1-dioxide] as the compound, how does the Ki read?
Its Ki is 2 nM.

For `COc1ccc(N2C(=O)N(Cc3cccc(Cl)c3F)c3ccccc3S2(=O)=O)cc1OC` [Example 71, 4-(3-Chloro-2-fluorobenzyl)-2-(3,4-dimethoxyphenyl)-2H-1,2,4-benzothiadiazin-3(4H)-one 1,1-dioxide], which Ki is on record?
Its Ki is 7.08 nM.

How did the Ki turn out when `COc1ccc(N2C(=O)N(Cc3ccc(Cl)cc3F)c3ccccc3S2(=O)=O)cc1OC` [Example 72, 4-(4-Chloro-2-fluorobenzyl)-2-(3,4-dimethoxyphenyl)-2H-1,2,4-benzothiadiazin-3(4H)-one 1,1-dioxide] was run?
The Ki was 10.5 nM.

With `O=C1N(Cc2c(F)cccc2Cl)c2ccccc2S(=O)(=O)N1c1cccc(SC(F)(F)F)c1` [Example 73, 4-(2-Chloro-6-fluorobenzyl)-2-{3-[(trifluoromethyl)sulfanyl]phenyl}-2H-1,2,4-benzothiadiazin-3(4H)-one 1,1-dioxide] as the compound, how does the Ki read?
The Ki was 2.09 nM.

With `CSc1cccc(N2C(=O)N(Cc3c(F)cccc3Cl)c3ccc(F)cc3S2(=O)=O)c1` [Example 74, 4-(2-Chloro-6-fluorobenzyl)-7-fluoro-2-[3-(methylsulfanyl)phenyl]-2H-1,2,4-benzothiadiazin-3(4H)-one 1,1-dioxide] as the compound, how does the Ki read?
The Ki was 11.7 nM.

For `O=C1N(Cc2c(F)cccc2F)c2ccccc2S(=O)(=O)N1c1cccc(SC(F)(F)F)c1` [Example 75, 4-(2,6-Difluorobenzyl)-2-{3-[(trifluoromethyl)sulfanyl]phenyl}-2H-1,2,4-benzothiadiazin-3(4H)-one 1,1-dioxide], which Ki is on record?
The Ki was 8.32 nM.

With `CSc1cccc(N2C(=O)N(Cc3c(F)cccc3Cl)c3cc(F)ccc3S2(=O)=O)c1` [Example 76, 4-(2-Chloro-6-fluorobenzyl)-6-fluoro-2-[3-(methylsulfanyl)phenyl]-2H-1,2,4-benzothiadiazin-3(4H)-one 1,1-dioxide] as the compound, how does the Ki read?
Its Ki is 14.8 nM.

`COc1ccc(N2C(=O)N(Cc3c(C)cccc3C)c3ccccc3S2(=O)=O)cc1OC` [Example 77, 4-(2,6-Dimethylbenzyl)-2-(3,4-methoxyphenyl)-2H-1,2,4-benzothiadiazin-3(4H)-one 1,1-dioxide] was tested. Which Ki did it give?
The Ki was 8.91 nM.

With `COc1cc(N2C(=O)N(Cc3c(F)cccc3Cl)c3ccccc3S2(=O)=O)cc(OC)c1OC` [Example 78, 4-(2-Chloro-6-fluorobenzyl)-2-(3,4,5-trimethoxyphenyl)-2H-1,2,4-benzothiadiazin-3(4H)-one 1,1-dioxide] as the compound, how does the Ki read?
The Ki was 4.07 nM.

For `COc1ccc(N2C(=O)N(Cc3c(C)cccc3F)c3ccccc3S2(=O)=O)cc1OC` [Example 79, 4-(2-Fluoro-6-methylbenzyl)-2-(3,4-methoxyphenyl)-2H-1,2,4-benzothiadiazin-3(4H)-one 1,1-dioxide], which Ki is on record?
The Ki was 0.389 nM.

With `COc1c(C)cc(N2C(=O)N(Cc3ccc(F)cc3Cl)c3ccccc3S2(=O)=O)cc1C` [Example 80, 4-(2-Chloro-4-fluorobenzyl)-2-(4-methoxy-3,5-dimethylphenyl)-2H-1,2,4-benzothiadiazin-3(4H)-one 1,1-dioxide] as the compound, how does the Ki read?
Its Ki is 7.59 nM.

`COc1c(C)cc(N2C(=O)N(Cc3c(F)cccc3Cl)c3ccccc3S2(=O)=O)cc1C` [Example 81, 4-(2-Chloro-6-fluorobenzyl)-2-(4-methoxy-3,5-dimethylphenyl)-2H-1,2,4-benzothiadiazin-3(4H)-one 1,1-dioxide] was tested. Which Ki did it give?
The Ki was 0.0832 nM.

For `Cc1cc(N2C(=O)N(Cc3c(F)cccc3Cl)c3ccccc3S2(=O)=O)cc(C)c1O` [Example 82, 4-(2-Chloro-6-fluorobenzyl)-2-(4-hydroxy-3,5-dimethylphenyl)-2H-1,2,4-benzothiadiazin-3(4H)-one 1,1-dioxide], which Ki is on record?
The Ki was 3.31 nM.

`CSc1cccc(N2C(=O)N(Cc3cc(C)nn3C)c3ccccc3S2(=O)=O)c1` [Example 83, 4-[(1,3-Dimethyl-1H-pyrazol-5-yl)methyl]-2-[3-(methylsulfanyl)phenyl]-2H-1,2,4-benzothiadiazin-3(4H)-one 1,1-dioxide] was tested. Which Ki did it give?
Its Ki is 295 nM.

How did the Ki turn out when `COc1ccc(N2C(=O)N(Cc3c(C)ccnc3C)c3ccccc3S2(=O)=O)cc1OC` [Example 84, 2-(3,4-Dimethoxyphenyl)-4-[(2,4-dimethylpyridin-3-yl)methyl]-2H-1,2,4-benzothiadiazin-3(4H)-one 1,1-dioxide] was run?
The Ki was 490 nM.

Which Ki does the source give for `COc1ccc(N2C(=O)N(Cc3c(F)cncc3F)c3ccccc3S2(=O)=O)cc1OC` [Example 85, 4-[(3,5-Difluoropyridin-4-yl)methyl]-2-(3,4-dimethoxyphenyl)-2H-1,2,4-benzothiadiazin-3(4H)-one 1,1-dioxide] here?
Its Ki is 60.3 nM.

With `COc1ccc(N2C(=O)N(Cc3ncc(C)cc3C)c3ccccc3S2(=O)=O)cc1OC` [Example 86, 4-[(3,5-Dimethylpyridin-2-yl)methyl]-2-(3,4-dimethoxyphenyl)-2H-1,2,4-benzothiadiazin-3(4H)-one 1,1-dioxide] as the compound, how does the Ki read?
The Ki was 74.1 nM.

Which Ki does the source give for `CSc1cccc(N2C(=O)N(Cc3ncccc3C)c3ccccc3S2(=O)=O)c1` [Example 87, 4-[(3-Methylpyridin-2-yl)methyl]-2-[3-(methylsulfanyl)phenyl]-2H-1,2,4-benzothiadiazin-3(4H)-one 1,1-dioxide] here?
The Ki was 35.5 nM.

With `COc1ccc(N2C(=O)N(Cc3ncccc3F)c3ccccc3S2(=O)=O)cc1OC` [Example 88, 2-(3,4-Dimethoxyphenyl)-4-[(3-fluoropyridin-2-yl)methyl]-2H-1,2,4-benzothiadiazin-3(4H)-one 1,1-dioxide] as the compound, how does the Ki read?
The Ki was 28.2 nM.

`COc1ccc(N2C(=O)N(Cc3ncc(Br)cc3F)c3ccccc3S2(=O)=O)cc1OC` [Example 89, 4-[(5-Bromo-3-fluoropyridin-2-yl)methyl]-2-(3,4-dimethoxyphenyl)-2H-1,2,4-benzothiadiazin-3(4H)-one 1,1-dioxide] was tested. Which Ki did it give?
Its Ki is 38.9 nM.

Which Ki does the source give for `COc1ccc(N2C(=O)N(Cc3c(Cl)cncc3Cl)c3ccccc3S2(=O)=O)cc1OC` [Example 90, 4-[(3,5-Dichloropyridin-4-yl)methyl]-2-(3,4-dimethoxyphenyl)-2H-1,2,4-benzothiadiazin-3(4H)-one 1,1-dioxide] here?
Its Ki is 3.02 nM.

With `COc1ccc(N2C(=O)N(Cc3c(F)cccc3Cl)c3ccncc3S2(=O)=O)cc1OC` [Example 91, 4-(2-Chloro-6-fluorobenzyl)-2-(3,4-dimethoxyphenyl)-2H-pyrido[4,3-e][1,2,4]thiadiazin-3(4H)-one 1,1-dioxide] as the compound, how does the Ki read?
Its Ki is 38 nM.
